Assay results reported in US10526311B2 (ASTEX THERAPEUTICS LIMITED, priority 2015, dated 2020).
Counter-ions that a name gives are not always drawn. Like-named read-outs stand apart in the source and are kept apart here. Blank lines part the entries; values can stand above or below the compound they belong to.

Experiments:
[1] = biological target: MDM2-p53 interaction (in vitro translated MDM2, biotinylated IP3 peptide) (Homo sapiens, UniProt Q00987); test: MDM2-p53 interaction 96-well plate binding assay (ELISA)
[2] = system: SJSA-1; test: Protocol B: SJSA-1 CellTiter-Glo cell viability
[3] = @ 0.30 μM, read-out: MDM2 % @ concentration
[4] = @ 0.10 μM, read-out: MDM2 % @ concentration
[5] = @ 0.0010 μM, read-out: MDM2 % @ concentration
[6] = Homo sapiens, SJSA-1, 72 h, read-out: SJSA1 IC50 (Protocol B), SJSA-1 cells, CellTiter-Glo, 72 hrs
[7] = Homo sapiens, SJSA-1, 72 h, read-out: SJSA1 IC50 (μM) (Protocol B), SJSA-1, Protocol B (CellTiter-Glo), 72 hrs

MDM2-p53 interaction (in vitro translated MDM2, biotinylated IP3 peptide), sequence (Q00987 whole entry): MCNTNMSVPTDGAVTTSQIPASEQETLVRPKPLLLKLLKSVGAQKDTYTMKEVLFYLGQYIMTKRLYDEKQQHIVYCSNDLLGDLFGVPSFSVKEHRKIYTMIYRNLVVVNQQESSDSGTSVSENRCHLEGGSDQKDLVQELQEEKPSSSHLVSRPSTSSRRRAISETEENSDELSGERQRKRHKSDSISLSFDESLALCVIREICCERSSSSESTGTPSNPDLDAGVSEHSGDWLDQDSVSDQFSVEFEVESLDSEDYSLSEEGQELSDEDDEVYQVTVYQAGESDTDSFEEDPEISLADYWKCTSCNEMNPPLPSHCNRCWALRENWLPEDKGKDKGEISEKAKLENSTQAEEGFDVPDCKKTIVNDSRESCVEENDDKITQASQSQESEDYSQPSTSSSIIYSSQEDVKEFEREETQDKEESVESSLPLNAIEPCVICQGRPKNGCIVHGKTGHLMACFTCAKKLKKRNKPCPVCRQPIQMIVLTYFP

Structure (SMILES): CO[C@]1(c2ccc(Cl)cc2)c2ccc(C(C)(O)CN3CC(=O)NC3=O)cc2C(=O)N1Cc1ccc(Cl)cn1 (single isomer, unassigned) [Example 330]
MDM2 % @ concentration ([1]; @ 0.30 μM): 36% @ 0.30

Structure (SMILES): CCC(O)(c1cc(F)c2c(c1)C(=O)N(Cc1ccc(C#N)cn1)[C@@]2(O[C@H]1CCOC1)c1ccc(Cl)cc1)c1cnn(C)c1 (single isomer, unassigned) [Example 358]
inhibition at 0.001 µM [1, 5]: 74%

Structure (SMILES): CCC(O)(c1cc(F)c2c(c1)C(=O)N(Cc1ccc(C#N)cn1)[C@@]2(OCCOC)c1ccc(Cl)cc1)c1cn(C)cn1 (single isomer, unassigned) [Example 429]
inhibition at 0.1 µM [1, 4]: 65%

Structure (SMILES): CCC(O)(c1cc(F)c2c(c1)C(=O)N(Cc1ccc(C#N)cn1)[C@@]2(O[C@H]1CCOC1)c1ccc(Cl)cc1)C1(F)CCOCC1 (single isomer, unassigned) [Example 445]
MDM2 % @ concentration ([1]; @ 0.0010 μM): 43% @ 0.0010
inhibition at 0.1 µM ([1]; read-out: MDM2 % @ concentration, @ 0.10 μM): 56%

Structure (SMILES): CO[C@]1(c2ccc(Cl)cc2)c2c(F)cc(C(C)(O)c3ccn(C)n3)cc2C(=O)N1Cc1ccc(Cl)cn1 (stereo partly drawn) [Example 190, (3R)-3-(4-Chlorophenyl)-2-[(5-chloropyridin-2-yl)methyl]-4-fluoro-6-[1-hydroxy-1-(1-methyl-1H-pyrazol-3-yl)ethyl]-3-methoxy-2,3-dihydro-1H-isoindol-1-one]
IC50 ([2]; read-out: SJSA1 IC50 (Protocol B), SJSA-1 cells, CellTiter-Glo, 72 hrs): 5 µM

Structure (SMILES): CN1CCN(CC(C)(O)c2cc(F)c3c(c2)C(=O)N(Cc2ccc(C#N)cn2)[C@@]3(OCC2(C#N)CC2)c2ccc(Cl)cc2)CC1 (stereo partly drawn) [Example 279, 6-{[(1R)-1-(4-chlorophenyl)-1-[(1-cyanocyclopropyl)methoxy]-7-fluoro-5-[2-hydroxy-1-(4-methylpiperazin-1-yl)propan-2-yl]-3-oxo-2,3-dihydro-1H-isoindol-2-yl]methyl}pyridine-3-carbonitrile]
IC50 [2, 6]: 0.57 µM

Structure (SMILES): CCC(O)(c1cc(F)c2c(c1)C(=O)N(Cc1ccc(C#N)cn1)[C@@]2(OCC1(CO)CC1)c1ccc(Cl)cc1)c1cn(C)cn1 (stereo partly drawn) [Example 337, 6-{[(1R)-1-(4-chlorophenyl)-7-fluoro-5-[1-hydroxy-1-(1-methyl-1H-imidazol-4-yl)propyl]-1-{[1-(hydroxymethyl)cyclopropyl]methoxy}-3-oxo-2,3-dihydro-1H-isoindol-2-yl]methyl}pyridine-3-carbonitrile]
IC50 [2, 7]: 0.058 µM

Structure (SMILES): Cn1cc(C(C)(O)c2cc(F)c3c(c2)C(=O)N(Cc2ncc(Cl)cn2)[C@@]3(OCC2(CO)CC2)c2ccc(Cl)cc2)cn1 (stereo partly drawn) [Example 349, (3R)-3-(4-chlorophenyl)-2-[(5-chloropyrimidin-2-yl)methyl]-4-fluoro-6-[1-hydroxy-1-(1-methyl-1H-pyrazol-4-yl)ethyl]-3-{[1-(hydroxymethyl)cyclopropyl]methoxy}-2,3-dihydro-1H-isoindol-1-one]
IC50 [2, 6]: 0.028 µM

Structure (SMILES): Cn1cc(C(C)(O)c2cc(F)c3c(c2)C(=O)N(Cc2ccc(C#N)cn2)[C@@]3(O[C@H]2C[C@@H](O)C2)c2ccc(Cl)cc2)cn1 (stereo partly drawn) [Example 355, 6-{[1-(4-chlorophenyl)-7-fluoro-5-[1-hydroxy-1-(1-methyl-1H-pyrazol-4-yl)ethyl]-3-oxo-1-[cis-3-hydroxycyclobutoxy]-2,3-dihydro-1H-isoindol-2-yl]methyl}pyridine-3-carbonitrile]
IC50 [2, 6]: 4.7 µM

Structure (SMILES): Cn1cc(C(O)(c2cc(F)c3c(c2)C(=O)N(Cc2ccc(C#N)cn2)[C@@]3(O[C@H]2CCOC2)c2ccc(Cl)cc2)C(F)(F)F)cn1 (stereo partly drawn) [Example 371, 6-{[(1R)-1-(4-chlorophenyl)-7-fluoro-3-oxo-1-[(3S)-oxolan-3-yloxy]-5-[2,2,2-trifluoro-1-hydroxy-1-(1-methyl-1H-pyrazol-4-yl)ethyl]-2,3-dihydro-1H-isoindol-2-yl]methyl}pyridine-3-carbonitrile]
IC50 [2, 7]: 2.3 µM

Structure (SMILES): CC(O)(c1cc(F)c2c(c1)C(=O)N(Cc1ccc(Cl)cn1)[C@@]2(OCC1(O)CC1)c1ccc(Cl)cc1)c1ncccn1 (stereo partly drawn) [Example 396, (3R)-3-(4-chlorophenyl)-2-[(5-chloropyridin-2-yl)methyl]-4-fluoro-6-[1-hydroxy-1-(pyrimidin-2-yl)ethyl]-3-[(1-hydroxycyclopropyl)methoxy]-2,3-dihydro-1H-isoindol-1-one]
IC50 [2, 6]: 0.28 µM

Structure (SMILES): CC[C@@](O)(c1cc(F)c2c(c1)C(=O)N(Cc1ncc(C#N)cn1)[C@@]2(O[C@H]1C[C@@H](O)C1)c1ccc(Cl)cc1)C1(F)CCOCC1 [Example 505, 2-{[(1R)-1-(4-chlorophenyl)-7-fluoro-5-[(1R)-1-(4-fluorooxan-4-yl)-1-hydroxypropyl]-3-oxo-1-[cis-3-hydroxycyclobutoxy]-2,3-dihydro-1H-isoindol-2-yl]methyl}pyrimidine-5-carbonitrile]
IC50 [2, 7]: 0.027 µM

Structure (SMILES): CC[C@](O)(c1cc(F)c2c(c1)C(=O)N(Cc1ncc(C#N)cn1)[C@@]2(O[C@H]1C[C@@H](O)C1)c1ccc(Cl)cc1)C1(F)CCOCC1 [Example 506, 2-{[(1R)-1-(4-chlorophenyl)-7-fluoro-5-[(1S)-1-(4-fluorooxan-4-yl)-1-hydroxypropyl]-3-oxo-1-[cis-3-hydroxycyclobutoxy]-2,3-dihydro-1H-isoindol-2-yl]methyl}pyrimidine-5-carbonitrile]
IC50 [2, 7]: 3.4 µM

Structure (SMILES): CC[C@@](O)(c1cc(F)c2c(c1)C(=O)N(Cc1ncc(Cl)cn1)[C@@]2(O[C@H]1C[C@@H](O)C1)c1ccc(Cl)cc1)C1CCN(C)CC1 [Example 560, (3R)-3-(4-chlorophenyl)-2-[(5-chloropyrimidin-2-yl)methyl]-4-fluoro-6-[(1S)-1-hydroxy-1-(1-methylpiperidin-4-yl)propyl]-3-[cis-3-hydroxycyclobutoxy]-2,3-dihydro-1H-isoindol-1-one]
IC50 [2, 7]: 0.13 µM

Now from value to compound:

inhibition at 0.3 µM [1, 3]: 39%
Structure (SMILES): CO[C@]1(c2ccc(Cl)cc2)c2ccc(C(C)(O)CN3CCNC3=O)cc2C(=O)N1Cc1ccc(Cl)cn1 (single isomer, unassigned) [Example 157]

inhibition at 0.1 µM [1, 4]: 57%
Structure (SMILES): CO[C@]1(c2ccc(Cl)cc2)c2ccc(C(C)(O)CN3CCNC3=O)cc2C(=O)N1Cc1ccc(Cl)cn1 (single isomer, unassigned) [Example 158]

inhibition at 0.001 µM [1, 5]: 62%
Structure (SMILES): CO[C@]1(c2ccc(Cl)cc2)c2c(F)cc(C(C)(O)C3CCN(C(=O)CO)CC3)cc2C(=O)N1Cc1ccc(Cl)cn1 (single isomer, unassigned) [Example 296]

inhibition at 0.3 µM [1, 3]: 42%
Structure (SMILES): CO[C@]1(c2ccc(Cl)cc2)c2ccc(C(C)(O)CN3CCOCC3=O)cc2C(=O)N1Cc1ccc(Cl)cn1 (single isomer, unassigned) [Example 327]

inhibition at 0.03 µM ([1]; @ 0.030 μM, read-out: MDM2 % @ concentration): 54%
Structure (SMILES): Cn1cc(C(C)(O)c2cc(F)c3c(c2)C(=O)N(Cc2ncc(F)cc2F)[C@@]3(OCC2(O)CC2)c2ccc(Cl)cc2)cn1 (single isomer, unassigned) [Example 350]

inhibition at 0.1 µM [1, 4]: 25%
Structure (SMILES): Cn1cc(C(C)(O)c2cc(F)c3c(c2)C(=O)N(Cc2ncc(F)cc2F)[C@@]3(OCC2(O)CC2)c2ccc(Cl)cc2)cn1 (single isomer, unassigned) [Example 351]

inhibition at 0.1 µM [1, 4]: 50%
Structure (SMILES): CCC(O)(c1cc(F)c2c(c1)C(=O)N(Cc1ccc(C#N)cn1)[C@@]2(O[C@H]1CCOC1)c1ccc(Cl)cc1)c1cnn(C)c1 (single isomer, unassigned) [Example 359]

inhibition at 0.3 µM [1, 3]: 53%
Structure (SMILES): CO[C@]1(c2ccc(Cl)cc2)c2c(F)cc(C(C)(O)c3cnn(C4CN(C(=O)OC(C)(C)C)C4)c3)cc2C(=O)N1Cc1ccc(Cl)cn1 (single isomer, unassigned) [Example 457]

inhibition at 0.1 µM [1, 4]: 73%
Structure (SMILES): CCC(O)(c1cc(F)c2c(c1)C(=O)N(Cc1ncc(C#N)cn1)[C@@]2(OCC1(C#N)CC1)c1ccc(Cl)cc1)c1cn(C)cn1 (single isomer, unassigned) [Example 463]

IC50 [2, 7]: 0.02 µM
Structure (SMILES): CC[C@@](O)(c1cc(F)c2c(c1)C(=O)N(Cc1ncc(C#N)cn1)[C@@]2(O[C@H]1CCOC1)c1ccc(Cl)cc1)C1(F)CCOCC1 [Example 507, 2-{[(1R)-1-(4-chlorophenyl)-7-fluoro-5-[(1R)-1-(4-fluorooxan-4-yl)-1-hydroxypropyl]-3-oxo-1-[(3S)-oxolan-3-yloxy]-2,3-dihydro-1H-isoindol-2-yl]methyl}pyrimidine-5-carbonitrile]

IC50 [2, 7]: 0.018 µM
Structure (SMILES): CCC(O)(c1cc(F)c2c(c1)C(=O)N(Cc1ncc(Cl)cn1)[C@@]2(OC)c1ccc(Cl)cc1)[C@H]1CC[C@H](O)CC1 (stereo partly drawn) [Example 511, (3R)-3-(4-chlorophenyl)-2-[(5-chloropyrimidin-2-yl)methyl]-4-fluoro-6-{1-hydroxy-1-[trans-4-hydroxycyclohexyl]propyl}-3-methoxy-2,3-dihydro-1H-isoindol-1-one]

IC50 [2, 7]: 0.64 µM
Structure (SMILES): CC[C@@](O)(c1cc(F)c2c(c1)C(=O)N(Cc1ncc(Cl)cc1C(=O)O)[C@@]2(OC)c1ccc(Cl)cc1)C1(F)CCOCC1 [Example 514, 5-chloro-2-{[(1R)-1-(4-chlorophenyl)-7-fluoro-5-[(1R)-1-(4-fluorooxan-4-yl)-1-hydroxypropyl]-1-methoxy-3-oxo-2,3-dihydro-1H-isoindol-2-yl]methyl}pyridine-3-carboxylic acid (tris(hydroxymethyl)aminomethane salt)]

IC50 [2, 7]: 0.094 µM
Structure (SMILES): CC[C@@](O)(c1cc(F)c2c(c1)C(=O)N(Cc1ncc(Cl)cc1O)[C@@]2(O[C@H]1CCOC1)c1ccc(Cl)cc1)C1CCN(C)CC1 [Example 568, 2-[(5-chloro-3-hydroxypyridin-2-yl)methyl]-3-(4-chlorophenyl)-4-fluoro-6-[(1S)-1-hydroxy-1-(1-methylpiperidin-4-yl)propyl]-3-[(3S)-oxolan-3-yloxy]-2,3-dihydro-1H-isoindol-1-one]

IC50 [2, 7]: 0.014 µM
Structure (SMILES): [2H]C([2H])(O)C([2H])([2H])O[C@]1(c2ccc(Cl)cc2)c2c(F)cc(C(O)(CC)C3(F)CCN(C)CC3)cc2C(=O)N1Cc1ncc(Cl)cn1 (stereo partly drawn) [Example 580, (3R)-3-(4-chlorophenyl)-2-[(5-chloropyrimidin-2-yl)methyl]-4-fluoro-6-[1-(4-fluoro-1-methylpiperidin-4-yl)-1-hydroxypropyl]-3-[2-hydroxy(1,1,2,2-tetradeutero)ethoxy]-2,3-dihydro-1H-isoindol-1-one]
